Data reported in patent publication US8481597B2, “Use of (-) (3-trihalomethylphenoxy) (4-halophenyl) acetic acid derivatives for treatment of insulin resistance, type 2 diabetes, hyperlipidemia and hyperuricemia” (Metabolex, Inc., priority 1999, dated 2013).
Entries after “also recorded” stand apart in the source; their conditions may differ.

Test system: Zucker diabetic fatty (ZDF) rats
Experiment: Lipid lowering in Zucker Diabetic Fatty rats (Example 11)
Format: in vivo
Conditions: for plasma cholesterol, in words: Experiment I, 13 days, racemate 50 mg/kg/day, enantiomers 25 mg/kg/day; for plasma cholesterol lowering, in words / plasma triglyceride, in words: 37.5 mg/kg/day (High dose), 37.5 mg/kg/day
Method: Male Zucker diabetic fatty (ZDF) rats were obtained from GMI Laboratories (Indianapolis, Ind.) at 9 weeks of age. Vehicle or enantiomers of halofenate administered by oral gavage on a daily basis starting at 74 days of age. Initial blood samples were obtained for analysis one day before treatment and at the indicated times in the treatment protocol. Blood was analyzed for plasma triglyceride and cholesterol by standard techniques.

[1] = Experiment II, listed as (−) enantiomer

CC(=O)NCCOC(=O)C(Oc1cccc(C(F)(F)F)c1)c1ccc(Cl)cc1 (single isomer, unassigned; (-)) [(−) halofenate, (−) 2-acetamidoethyl 4-chlorophenyl-(3-trifluoromethylphenoxy)acetate]
plasma cholesterol, in words: significant decrease in plasma cholesterol | plasma cholesterol, in words (listed as (−) enantiomer): plasma cholesterol declined with treatment; also recorded: most active of the species tested | days of treatment with significantly lower plasma cholesterol vs control (Experiment II, 12.5 mg/kg/day (Low dose)): 7 days | plasma cholesterol lowering, in words (Experiment II): much greater decline in plasma cholesterol | plasma triglyceride, in words (Experiment II, listed as (−) enantiomer of halofenate): greater magnitude | plasma cholesterol lowering, in words [1]: greatest extent of cholesterol lowering | plasma triglyceride, in words [1]: lowest triglyceride levels of all the treatment groups; also recorded: significant lowering of plasma triglyceride
